Data reported in patent US20110318344A1, “Tumor Treatment” (MEDIZINISCHE UNIVERSITAET WIEN, priority 2009, published 2011).
Entries after “also recorded” stand apart in the source; their conditions may differ.

How the values were obtained:
[1] = test system: SK-OV-3 cells; assay: Proliferation assay (cell number by CASY cell counter, doubling time); assay type: cell-based, human
Procedure: The SK-OV-3 cell line was cultured equally the MDAH-2774 cell line except for the use of McCoy's medium. For applying the Tet-Off inducible system, founder cell lines were generated by transfecting SK-OV-3 cells with the pTet-Off vector (neo^r) encoding a tetracyclin repressible transactivator (tTA). Resistant colonies were selected with 200 μg/ml G418 and characterized by transient transfection with the luciferase reporter plasmid (pTRE-Luc), whose promoter is induced by the transactivator. Luciferase activity in the presence and absence of tetracycline was measured to identify cells with maximal promoter inducibility. […] These two founder cell lines were used to establish cells inducible for HCRP1-specific shRNA constructs (Open Biosystems; #V2HS 21202, #V2HS 21203), which were cloned into the SIN-TREmiR30-PIG vector (purr) downstream of the tetracycline inducible promoter. Thus, presence of tetracycline in the culture medium would suppress shRNA expression, while its withdrawal would induce the knock-down of HCRP1. […]
To maintain the logarithmic phase, cells were split at intervals of 48 hours, along with the determination of the cell number by a CASY cell counter (Innovatis AG, Bielefeld, Germany). […] From the obtained data doubling times (dt) were calculated and depicted as dt-1.

[2] = test system: MDAH-2774 cells; assay: as above; assay type: cell-based, human; conditions: MDAH-2774, HCRP1-silenced vs controls (FIG. 7B)
Procedure: To maintain the logarithmic phase, cells were split at intervals of 48 hours, along with the determination of the cell number by a CASY cell counter (Innovatis AG, Bielefeld, Germany). This procedure was performed in triplicates over a time-span of 6 days and confirmed by a replication of the whole experiment. From the obtained data doubling times (dt) were calculated and depicted as dt-1.

## CS(=O)(=O)CCNCc1ccc(-c2ccc3ncnc(Nc4ccc(OCc5cccc(F)c5)c(Cl)c4)c3c2)o1 [Lapatinib]
[1]; SKOV-3, HCRP1-silenced vs controls (FIG. 7A)
  dependence of the anti-proliferative effect on HCRP1 expression: independent of HCRP1 expression; also recorded: unaffected by HCRP1 expression
[1]; SKOV-3 cells, 4 μM Lapatinib, 6 days, HCRP1 status not specified
  doubling time: 37.3 h
[2]
  dependence of the anti-proliferative effect on HCRP1 expression: independent of HCRP1 expression
